This note sets out measurements from patent US20250290117A1, “MOLECULAR PHENOTYPIC ANTIMICROBIAL SUSCEPTIBILITY TESTING” (priority 2024, published 2025).

Test [1] deals with pathogens of clinical samples. The test is described as follows: Molecular phenotypic antimicrobial susceptibility test of clinical samples, extraction DNA purification step prior to PCR (Table 6). The format is cell-based. As to the method: (§1) Detection of Molecular Phenotypic Antimicrobial Susceptibility. Disclosed herein are the methods for the detection of phenotypic antimicrobial susceptibility via molecular methods. The present invention describes how a specimen 100 with a known microbial load is incubated and then exposed to a panel of antimicrobial agents to determine sensitivity (prevention of growth) or resistance (allowance of growth) to the specific antimicrobial agents tested utilizing molecular methods.
Sample Collection. Specimens 100 are collected from patients using sterile collection processes that are employed in routine clinical care. Specimens are transported to the testing facility in boric acid preservative.
Preparation of the Specimens for Testing. […] The process for pathogen isolation includes steps of harvesting the pathogen (e.g., via centrifugation), isolating pathogen DNA via a DNA isolation and/or purification kit, and performing PCR on the pathogen DNA via PCR components (e.g., primers, enzymes, buffers) as would be known to the skilled artisan. […] This aliquot is used for antimicrobial susceptibility testing if indicated based on the pathogen detection results. […] Specimens 100 with lower pathogen loads could also be utilized in the antibiotic susceptibility phase of testing with or without a longer incubation period.
(§2) Preparation of Antimicrobial Susceptibility Testing Plates. Antimicrobial solutions are prepared at known concentrations. The specific antimicrobials and their concentrations are selected based on the pathogen of interest and the described antimicrobial resistance breakpoints for that specimen pathogen and antimicrobial combination. These antimicrobials have been selected based on those commonly utilized by healthcare providers in routine clinical care for the specific type of suspected infection. The number and types of antimicrobials utilized can be customized based on the infection source, pathogen detected, patient-specific factors such as allergies or other health conditions (e.g., chronic kidney disease or concurrent medication use), or healthcare provider preferences such as antimicrobial availability or cost.
The antimicrobial solutions are prepared in liquid culture media (such as Muller Hinton Broth) to achieve the desired antimicrobial concentration and are then stored at −80° C. until use. For a given specimen, each antimicrobial is tested at a single or multiple antimicrobial concentration(s) which is its established breakpoints for sensitivity. The antimicrobial solutions are prepared and plated out for each specific pathogen. […] This allows for evaluation of pathogen load when no antimicrobial is present.
Specimen Exposure to Antimicrobial Agents. The 1 mL aliquot of the specimen 100 previously mixed with culture media and incubated is obtained. Using optical density measurements as a guide, the specimen 100 is diluted to 0.5 McFarland.
Antimicrobial exposure plates are typically placed into an incubator for 12-16 hours.
Nucleic Acid Amplification of Antimicrobial Agent Exposed Pathogens. The antimicrobial exposure plate is removed after the period of incubation. The specimen then undergoes a purification or lysis step. For example, the specimen may undergo a purification step (e.g., magnetic bead-based or other separation protocol to isolate genetic material). In another example, the specimen may undergo a cell lysis step. For example, buffer (e.g., lysis buffer) may be added and incubated in the thermal cycler for preparation for direct PCR. Next, the specimen may undergo a polymerase chain reaction (PCR) testing protocol, whereby a semi-quantitative PCR method is utilized. This may be completed either with or without a specific extraction protocol step. The pathogens can be individually targeted and detected, or a universal genetic sequence can be utilized to detect the antimicrobial susceptibility of the specimen as a whole.

The next test has as its system E. coli. The test is described as follows: Molecular phenotypic antimicrobial susceptibility test, specimen with two detected pathogens incubated together without isolation. The format is cell-based, Escherichia coli. The settings on record: E. coli in specimen with two detected pathogens (E. coli and M. morganii) incubated together; for Ct of Sensitive Breakpoint: Ct of controls (average) 15.93; for Molecular Antimicrobial Susceptibility Result: at sensitive breakpoint. Here is the method:
as §1
(§3) Sample Collection. Specimens 100 are collected from patients using sterile collection processes that are employed in routine clinical care. Specimens are transported to the testing facility in boric acid preservative. Specimens 100 are subsequently divided into a first sample 104 and a second sample 108.
(§4) Preparation of the Specimens for Testing. The specimens 100 are put through a pathogen identification process using PCR technology (e.g., using the first sample 104). The process for pathogen isolation includes steps of harvesting the pathogen (e.g., via centrifugation), isolating pathogen DNA via a DNA isolation and/or purification kit, and performing PCR on the pathogen DNA via PCR components (e.g., primers, enzymes, buffers) as would be known to the skilled artisan. Simultaneously, an additional aliquot of the same specimen (e.g., the second sample 108) is placed with liquid culture media and incubated for 4-6 hours. This aliquot is used for antimicrobial susceptibility testing if indicated based on the pathogen detection results. After pathogen identification is completed and if more than 10,000 cells/mL of bacteria (e.g., eligible bacteria) are detected in the source specimen, the second sample 108 then enters the antimicrobial susceptibility phase of testing. Specimens 100 with lower pathogen loads could also be utilized in the antibiotic susceptibility phase of testing with or without a longer incubation period.
as §2
(§5) The antimicrobial solutions are prepared in liquid culture media (such as Muller Hinton Broth) to achieve the desired antimicrobial concentration and are then stored at −80° C. until use. For a given specimen, each antimicrobial is tested at a single or multiple antimicrobial concentration(s) which is its established breakpoints for sensitivity. The antimicrobial solutions are prepared and plated out for each specific pathogen. This allows ease of use on the day of testing after defrosting the plate 112. Table 1, which illustrates the results of molecular phenotypic antimicrobial susceptibility testing when more than one organism is present in the source specimen, provides an example of an antimicrobial plate 112 prepared for this purpose. Of note, control wells containing only culture media are present on all plates 112. This allows for evaluation of pathogen load when no antimicrobial is present.
(§6) Specimen Exposure to Antimicrobial Agents. The 1 mL aliquot of the specimen 100 previously mixed with culture media and incubated is obtained. Using optical density measurements as a guide, the specimen 100 is diluted to 0.5 McFarland. […]

The next test concerns M. morganii. Described as above. The format is cell-based, Morganella morganii. The conditions noted are these: M. morganii in specimen with two detected pathogens (E. coli and M. morganii) incubated together; for Ct of Sensitive Breakpoint: Ct of controls (average) 19.99; for Molecular Antimicrobial Susceptibility Result: at sensitive breakpoint. As to the method: as §1, §3, §4, §2, §5, §6

Where [2] appears, read: E. coli, clinical sample of r10-r24.
The mark [3] stands for this setting: E. coli, clinical sample of r158-r172.
The mark [4] stands for this setting: K. aerogenes, clinical sample of r136-r150.
[5] abbreviates: K. pneumoniae, clinical sample of r121-r135.
Where [6] appears, read: M. morganii, clinical sample of r55-r69.
The mark [7] stands for this setting: M. morganii, clinical sample of r70-r84.
The mark [8] stands for this setting: P. mirabilis, clinical sample of r25-r39.
Where [9] appears, read: P. mirabilis, clinical sample of r40-r54.

As to `CO/N=C(\C(=O)N[C@@H]1C(=O)N2C(C(=O)[O-])=C(C[N+]3(C)CCCC3)CS[C@H]12)c1csc(N)n1` [Cefepime], the “Molecular Antibiotic Susceptibility Result” value in test [1] (setting [2]), in test [1] (setting [3]), in test [1] (setting [4]), in test [1] (setting [5]), in test [1] (setting [6]) and in test [1] (setting [7]) was “Sensitive (Antimicrobial wells with pathogen load detected below the control wells (typically >2 cycle thresholds later) may be reported as Sensitive)” throughout. For the same molecule, the “Molecular Antibiotic Susceptibility Result” value in test [1] (setting [8]) and in test [1] (setting [9]) was “Sensitive (Antimicrobial wells with pathogen load detected below the control wells (typically >2 cycle thresholds later) may be reported as Sensitive)” throughout. Moreover, the “Ct of Sensitive Breakpoint” value is 26.80 in the test with E. coli and 29.72 in the test on M. morganii. Further, the “Molecular Antimicrobial Susceptibility Result” value in the test with E. coli and in the test with M. morganii was “Sensitive (Antimicrobial wells with pathogen load detected below the control wells (typically >2 cycle thresholds later) may be reported as Sensitive)” in each case.

For the molecule `CO/N=C(\C(=O)N[C@@H]1C(=O)N2C(C(=O)O)=C(CSc3nc(=O)c(=O)[nH]n3C)CS[C@H]12)c1csc(N)n1` [Ceftriaxone], the “Molecular Antibiotic Susceptibility Result” value in test [1] (setting [2]), in test [1] (setting [3]), in test [1] (setting [4]), in test [1] (setting [5]), in test [1] (setting [6]) and in test [1] (setting [7]) was “Sensitive (Antimicrobial wells with pathogen load detected below the control wells (typically >2 cycle thresholds later) may be reported as Sensitive)” in each case. For the same molecule, the “Molecular Antibiotic Susceptibility Result” value in test [1] (setting [8]) and in test [1] (setting [9]) was “Sensitive (Antimicrobial wells with pathogen load detected below the control wells (typically >2 cycle thresholds later) may be reported as Sensitive)” throughout. Further, the Ct in test [1] (E. coli, clinical sample of r10-r24, Ct Control Avg 18.112) is 26.029; in test [1] (E. coli, clinical sample of r158-r172, Ct Control Avg 20.146), 29.851; in test [1] (K. aerogenes, clinical sample of r136-r150, Ct Control Avg 19.994), 33.124; in test [1] (K. pneumoniae, clinical sample of r121-r135, Ct Control Avg 24.272), 33.145; in test [1] (M. morganii, clinical sample of r55-r69, Ct Control Avg 28.86), 35.749; in test [1] (M. morganii, clinical sample of r70-r84, Ct Control Avg 27.053) it was 36.141. The Ct was found to be 29.277 in test [1] (P. mirabilis, clinical sample of r25-r39, Ct Control Avg 26.064) and 32.789 in test [1] (P. mirabilis, clinical sample of r40-r54, Ct Control Avg 26.987). Besides, the figures for the “Ct of Sensitive Breakpoint” value in the test on E. coli and with M. morganii were 28.57 and 30.03, respectively. The “Molecular Antimicrobial Susceptibility Result” value in the test with E. coli and in the test on M. morganii was “Sensitive (Antimicrobial wells with pathogen load detected below the control wells (typically >2 cycle thresholds later) may be reported as Sensitive)” each time.
